Laboratory results reported in ChEMBL document CHEMBL1201862, “PubChem BioAssay data set” (2004).
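Protocol summary: plate cells (96-well), add compound at 5 concentrations, incubate 48 h, interpolate endpoints linearly. GI50 = concentration required for 50% inhibition of growth.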 The source made the active and inactive calls. Rule as the data show it: active = GI50 up to about 1.1 µM and inactive = higher.

Tests used:
Assay in all cases: growth of human tumour cells (NCI), 48 h
786-0 = tested on: 786-0
DU-145 = tested on: DU-145
HCC 2998 = tested on: HCC 2998
HCT-15 = tested on: HCT-15
HL-60 = tested on: HL-60
HT-29 = tested on: HT-29
M14 = tested on: M14
MDA-MB-231 = tested on: MDA-MB-231
NCI-H226 = tested on: NCI-H226
NCI/ADR-RES = tested on: NCI/ADR-RES
OVCAR-5 = tested on: OVCAR-5
OVCAR-8 = tested on: OVCAR-8
RPMI-8226 = tested on: RPMI-8226
SF-268 = tested on: SF-268
SF-539 = tested on: SF-539
SK-MEL-28 = tested on: SK-MEL-28
SR = tested on: SR
T47D = tested on: T47D
UACC-62 = tested on: UACC-62
UO-31 = tested on: UO-31

| Compound | GI50 (786-0) | GI50 (DU-145) | GI50 (HCC 2998) | GI50 (HCT-15) | GI50 (HL-60) | GI50 (HT-29) | GI50 (M14) | GI50 (MDA-MB-231) | GI50 (NCI-H226) | GI50 (NCI/ADR-RES) | GI50 (OVCAR-5) | GI50 (OVCAR-8) | GI50 (RPMI-8226) | GI50 (SF-268) | GI50 (SF-539) | GI50 (SK-MEL-28) | GI50 (SR) | GI50 (T47D) | GI50 (UACC-62) | GI50 (UO-31) |
| --- | --- | --- | --- | --- | --- | --- | --- | --- | --- | --- | --- | --- | --- | --- | --- | --- | --- | --- | --- | --- |
| CCN(CC)c1ccc2cc(-c3csc(-c4ccc(N(C)C)cc4)n3)c(=O)oc2c1 | > 100 µM (inactive) | > 100 µM (inactive) | > 100 µM (inactive) | > 100 µM | > 100 µM (inactive) | > 100 µM (inactive) | > 100 µM (inactive) | > 100 µM (inactive) | > 100 µM (inactive) | > 100 µM (inactive) | > 100 µM (inactive) | > 100 µM (inactive) | > 100 µM (inactive) | > 100 µM (inactive) | > 100 µM (inactive) | > 100 µM (inactive) | > 100 µM (inactive) | > 100 µM (inactive) | > 100 µM (inactive) | > 100 µM (inactive) |
| Clc1ccc(OCC2NC3C=CC32)cn1 (centres undefined) | > 100 µM (inactive) | > 100 µM (inactive) | > 100 µM (inactive) | > 100 µM | > 100 µM (inactive) | 50.1 µM (inactive) | > 100 µM (inactive) | > 100 µM (inactive) | > 100 µM (inactive) | > 100 µM (inactive) | > 100 µM (inactive) | > 100 µM (inactive) | 34.4 µM (inactive) | > 100 µM (inactive) | > 100 µM (inactive) | > 100 µM (inactive) | 39.8 µM (inactive) | > 100 µM (inactive) | > 100 µM (inactive) | 44.7 µM (inactive) |
| CCN(CC)CC(=O)Nc1c(C(N)=O)nnn1Cc1cc(Cl)c(C(=O)c2ccc(Cl)cc2)c(Cl)c1 | 16.1 µM (inactive) | 30.8 µM (inactive) | 17.7 µM (inactive) | 16.6 µM | 15.5 µM (inactive) | 19.6 µM (inactive) | 16.9 µM (inactive) | 16.9 µM (inactive) | 14.4 µM (inactive) | 15.8 µM (inactive) | 19.5 µM (inactive) | 17.7 µM (inactive) | 22.3 µM (inactive) | 19.2 µM (inactive) | 16.5 µM (inactive) | 18.5 µM (inactive) | 23.8 µM (inactive) | 15.9 µM (inactive) | 17.6 µM (inactive) | 13.7 µM (inactive) |
| COC(=O)C1=C(OC(=O)/C(=C/c2ccc(Cl)cc2)c2ccc(Cl)cc2)C(C(=O)OC)[C@@]2(O)[C@@H](C(=O)OC)[C@H](C)C[C@@H]1[C@@H]2C(=O)OC (some centres undefined) | > 100 µM (inactive) | > 100 µM (inactive) | > 73.6 µM (inactive) | > 81.3 µM | > 100 µM (inactive) | > 61 µM (inactive) | > 100 µM (inactive) | > 71.9 µM (inactive) | > 100 µM (inactive) | 17.2 µM (inactive) | > 21 µM (inactive) | 25.1 µM (inactive) | 18 µM (inactive) | 35 µM (inactive) | > 100 µM (inactive) | > 100 µM (inactive) | > 63.2 µM (inactive) | > 74 µM (inactive) | > 100 µM (inactive) | > 100 µM (inactive) |
| O=c1nc(N2CCN(c3ccccc3)CC2)ccn1C1OC(CO)C(O)C1O (centres undefined) | 86.3 µM (inactive) | > 100 µM (inactive) | 35.9 µM (inactive) | > 100 µM | 39.9 µM (inactive) | 49.2 µM (inactive) | 37.5 µM (inactive) | > 100 µM (inactive) | > 100 µM (inactive) | > 100 µM (inactive) | > 100 µM (inactive) | 55.7 µM (inactive) | 36.9 µM (inactive) | > 100 µM (inactive) | > 100 µM (inactive) | > 100 µM (inactive) | 28.4 µM (inactive) | 22.5 µM (inactive) | 59.7 µM (inactive) | > 100 µM (inactive) |
| O=c1c(F)cn(Cc2c(Cl)cccc2Cl)c(=O)n1Cc1c(Cl)cccc1Cl | > 31.6 µM (inactive) | > 100 µM (inactive) | > 31.6 µM (inactive) | > 31.6 µM | 20 µM (inactive) | 18.3 µM (inactive) | > 31.6 µM (inactive) | > 31.6 µM (inactive) | > 71.6 µM (inactive) | > 31.6 µM (inactive) | > 31.6 µM (inactive) | > 31.6 µM (inactive) | > 31.6 µM (inactive) | > 31.6 µM (inactive) | > 31.6 µM (inactive) | > 31.6 µM (inactive) | 19.4 µM (inactive) | 20.7 µM (inactive) | 26 µM (inactive) | 18.1 µM (inactive) |
| C/C(=N\N)C(CN1CCCCC1)C(c1ccccc1)c1c(O)c2ccccc2oc1=O (centres undefined) | > 100 µM (inactive) | > 100 µM (inactive) | > 100 µM (inactive) | > 100 µM | > 71 µM (inactive) | > 100 µM (inactive) | > 100 µM (inactive) | > 100 µM (inactive) | > 100 µM (inactive) | > 100 µM (inactive) | > 100 µM (inactive) | > 100 µM (inactive) | > 100 µM (inactive) | > 100 µM (inactive) | > 100 µM (inactive) | > 100 µM (inactive) | > 100 µM (inactive) | > 100 µM (inactive) | > 100 µM (inactive) | > 67.3 µM (inactive) |
| C1CSC2=C(S1)SC1=C(S2)SC(=C2SC3=C(SC4=C(SCCS4)S3)S2)S1 | > 100 µM (inactive) | > 100 µM (inactive) | > 100 µM (inactive) | > 100 µM | 23.9 µM (inactive) | > 100 µM (inactive) | > 100 µM (inactive) | > 100 µM (inactive) | > 100 µM (inactive) | > 100 µM (inactive) | > 100 µM (inactive) | > 100 µM (inactive) | > 100 µM (inactive) | > 100 µM (inactive) | > 100 µM (inactive) | > 100 µM (inactive) | 87.7 µM (inactive) | > 100 µM (inactive) | > 100 µM (inactive) | > 100 µM (inactive) |
| O=C(Cn1c(C(=O)c2ccccc2)nc2ccccc21)c1ccccc1 | > 63.8 µM (inactive) | > 100 µM (inactive) | > 100 µM (inactive) | > 100 µM | 7.1 µM (inactive) | 19.2 µM (inactive) | > 100 µM (inactive) | > 100 µM (inactive) | > 100 µM (inactive) | > 100 µM (inactive) | > 100 µM (inactive) | > 100 µM (inactive) | > 100 µM (inactive) | > 100 µM (inactive) | > 100 µM (inactive) | > 100 µM (inactive) | > 100 µM (inactive) | > 100 µM (inactive) | > 56.6 µM (inactive) | > 56.1 µM (inactive) |
| O=C(CC(=O)Nc1ccccc1)NNC(c1cc(/N=N/c2ccc(Br)cc2)ccc1O)P(O)O (centres undefined) | 0.489 µM (active) | 3.48 µM (inactive) | 5.46 µM (inactive) | 0.425 µM | 0.291 µM (active) | > 10 µM (inactive) | 0.631 µM (active) | 2.73 µM (inactive) | 1.57 µM (inactive) | 1.06 µM (active) | 6.92 µM (inactive) | 0.759 µM (active) | 1.86 µM (inactive) | 0.964 µM (active) | 2.12 µM (inactive) | 4.45 µM (inactive) | 0.494 µM (active) | 3.31 µM (inactive) | 1.34 µM (inactive) | 2.52 µM (inactive) |
| CC1(C)CC2C(C1=O)C1(C)CCCC2(C)C1=O (centres undefined) | > 100 µM (inactive) | > 100 µM (inactive) | > 100 µM (inactive) | > 100 µM | > 100 µM (inactive) | > 100 µM (inactive) | > 100 µM (inactive) | > 100 µM (inactive) | > 100 µM (inactive) | > 100 µM (inactive) | > 100 µM (inactive) | > 100 µM (inactive) | > 100 µM (inactive) | > 100 µM (inactive) | > 100 µM (inactive) | > 100 µM (inactive) | > 100 µM (inactive) | > 100 µM (inactive) | > 100 µM (inactive) | > 100 µM (inactive) |
| COc1ccc2c3c([nH]c2c1)CCN(Cc1ccccc1)C3 | > 10 µM (inactive) | > 100 µM (inactive) | 19.1 µM (inactive) | 17.9 µM | 17.5 µM (inactive) | 27.2 µM (inactive) | 16.2 µM (inactive) | 28.9 µM (inactive) | 22.3 µM (inactive) | 31.5 µM (inactive) | 21 µM (inactive) | 48.3 µM (inactive) | 22.8 µM (inactive) | > 100 µM (inactive) | 16.1 µM (inactive) | 18.8 µM (inactive) | 17.4 µM (inactive) | 19.4 µM (inactive) | 31.8 µM (inactive) | 12.4 µM (inactive) |
| O=C(Oc1ccccn1)c1cc2cc(CCl)ccc2oc1=O | 19.5 µM (inactive) | 42.8 µM (inactive) | 58.9 µM (inactive) | 39.4 µM | 41.8 µM (inactive) | 76.7 µM (inactive) | > 100 µM (inactive) | 19.7 µM (inactive) | 71.1 µM (inactive) | 27 µM (inactive) | 37.5 µM (inactive) | 35.6 µM (inactive) | 35.6 µM (inactive) | 20.3 µM (inactive) | 50.5 µM (inactive) | 49 µM (inactive) | 30.4 µM (inactive) | 32.7 µM (inactive) | 27.2 µM (inactive) | 33.7 µM (inactive) |
| N#Cc1c(N2CCCC2)nsc1Nc1ccccc1 | > 100 µM (inactive) | > 100 µM (inactive) | > 100 µM (inactive) | > 100 µM | > 100 µM (inactive) | > 100 µM (inactive) | > 100 µM (inactive) | > 100 µM (inactive) | > 100 µM (inactive) | > 100 µM (inactive) | > 100 µM (inactive) | > 100 µM (inactive) | > 100 µM (inactive) | > 100 µM (inactive) | > 100 µM (inactive) | > 100 µM (inactive) | > 100 µM (inactive) | > 100 µM (inactive) | – | > 100 µM (inactive) |
